According to US20240391882A1 (Mirati Therapeutics, Inc., priority 2023, published 2024):

Each compound was assayed on pAKT in T47D (PI3Kα H1047R mutant) cells (assay: Inhibition of pAKT (alphaLISA Surefire Ultra AKT 1/2/3 pS473) in T47D cells). Details: Homo sapiens; T47D (PI3Kα H1047R mutant) cells, 24 hr compound incubation, alphaLISA pS473; read-out: T47D (H1047R) pAKT 24 hr (IC50).
Format: cell-based
Experimental: The ability of a compound of Formula (I) to inhibit the formation of pAKT was measured using alphaLISA Surefire Ultra AKT 1/2/3 (pS473) Assay Kit (#ALSU-PAKT-B50K) was obtained from Perkin Elmer (Waltham, MA).
To prepare assay plates for pAKT alphaLISA assays, cells were trypsinized, resuspended in fresh media, and viable cells were counted utilizing trypan blue exclusion. Prior to seeding, cells were washed with PBS and resuspended in HBSS (Gibco, #14025092). T47D (12,000/w), SKBR3 (12,000/w), or MKN1 (24,000/w) cells were seeded at 12 μl per well in a solid white flat bottom 384 cell culture plate (Perkin Elmer #6007680).
Immediately after seeding, cells were dosed using an Echo Liquid Handler (Beckman Coulter) with compounds at a 10.4 μm starting concentration and serially diluted (1:4) for a total of 10 concentrations. 14 vehicle (DMSO) and 14 positive control (Alpelisib @3.125 μm) wells were included on each assay plate. Cells were incubated with the compounds (solubilized in DMSO) for approximately 24 hours at 37° C. After 24 hours of treatment, cells were lysed with 3 μl of the 5× lysis buffer (provided and incubated at room temperature for 15 min on a microtiter plate shaker). Once cells were sufficiently lysed, 7.5 μl of the acceptor bead mix (made using the manufacturers recommended dilutions) was added to each well and left on the microtiter plate shaker for 1 min prior to incubating plates at room temperature for 1 hour, in the absence of light. After 1 hour of incubation with the acceptor bead mix, 7.5 μl of the donor bead mix (made using the manufacturers recommended dilutions) was added to each well and left on the microtiter plate shaker for 1 min prior to incubating plates at room temperature overnight in the absence of light. Plates were then imaged the following day using a CLARIOstar microplate reader (BMG Labtech, Germany).
Percent of control values were calculated by subtracting the average signal from the positive control (alpelisib) treated wells from all treated wells (including DMSO control wells) and then divided by the average signal from the vehicle DMSO treated control wells. Percent of vehicle control values were plotted as log(inhibitor) vs. response—Variable slope (four parameters) for curve fitting and IC50 values were determined using XLfit.

Compared with `Cc1cc([C@@H](C)Nc2ccc(Cl)nc2C(=O)O)c2nc(N3CC(F)(F)C4(CC4)C3)c(C#N)nc2c1` [Example 116, (R)-6-chloro-3-((1-(2-cyano-3-(7,7-difluoro-5-azaspiro[2.4]heptan-5-yl)-7-methylquinoxalin-5-yl)ethyl)amino)picolinic acid], `Cc1cc([C@@H](C)Nc2ccc(Cl)nc2C(=O)O)c2nc(N3CC[C@H](F)C3)c(C#N)nc2c1` [Example 176, 6-chloro-3-(((R)-1-(2-cyano-3-((S)-3-fluoropyrrolidin-1-yl)-7-methylquinoxalin-5-yl)ethyl)amino)picolinic acid] is 8.8-fold lower in IC50: 15 nM for the first, 1.7 nM for the second. The second is the more potent here.

Going from `Cc1cc([C@@H](C)Nc2ccc(Cl)nc2C(=O)O)c2nc(N3CCC(n4cc(C)cn4)CC3)c(C#N)nc2c1` [Example 138, (R)-6-chloro-3-((1-(2-cyano-7-methyl-3-(4-(4-methyl-1H-pyrazol-1-yl)piperidin-1-yl)quinoxalin-5-yl)ethyl)amino)picolinic acid] to `Cc1cc([C@@H](C)Nc2ccc(Cl)nc2C(=O)O)c2nc(N3CCC(n4cc(C(F)(F)F)cn4)CC3)c(C#N)nc2c1` [Example 139, (R)-6-chloro-3-((1-(2-cyano-7-methyl-3-(4-(4-(trifluoromethyl)-1H-pyrazol-1-yl)piperidin-1-yl)quinoxalin-5-yl)ethyl)amino)picolinic acid], the IC50 rises from 0.8 nM to 2.1 nM (2.6-fold).

First: Cc1cc([C@@H](C)Nc2ccc(Cl)nc2C(=O)O)c2nc(NCCC(F)(F)F)c(C#N)nc2c1 [Example 124, (R)-6-chloro-3-((1-(2-cyano-7-methyl-3-((3,3,3-trifluoropropyl)amino)quinoxalin-5-yl)ethyl)amino)picolinic acid]
Second: COCCNc1nc2c([C@@H](C)Nc3ccc(Cl)nc3C(=O)O)cc(C)cc2nc1C#N [Example 132, (R)-6-chloro-3-((1-(2-cyano-3-((2-methoxyethyl)amino)-7-methylquinoxalin-5-yl)ethyl)amino)picolinic acid]
The IC50 of the first is 2.1-fold higher: 1.9 nM for the first, 0.9 nM for the second. The second is the more potent here.

First: Cc1cc([C@@H](C)Nc2ccc(Cl)nc2C(=O)O)c2nc(N3C[C@@H]4C[C@H]3CO4)c(C#N)nc2c1 [Example 173, 3-(((R)-1-(3-((1S,4S)-2-oxa-5-azabicyclo[2.2.1]heptan-5-yl)-2-cyano-7-methylquinoxalin-5-yl)ethyl)amino)-6-chloropicolinic acid]
Second: Cc1cc([C@@H](C)Nc2ccc(Cl)nc2C(=O)O)c2nc(N3CC(C(F)(F)F)C3)c(C#N)nc2c1 [Example 131, (R)-6-chloro-3-((1-(2-cyano-7-methyl-3-(3-(trifluoromethyl)azetidin-1-yl)quinoxalin-5-yl)ethyl)amino)picolinic acid]
The IC50 of the first is 7.3-fold lower: 0.3 nM for the first, 2.2 nM for the second. The first is the more potent here.

`COC(=O)c1nc(Cl)ccc1N[C@H](C)c1cc(C)cc2nc(C#N)c(N3CC[C@](C)(F)C3)nc12` (single isomer, unassigned) [Example 181] and `CC(=O)N(C)C1CCN(c2nc3c([C@@H](C)Nc4ccc(Cl)nc4C(=O)O)cc(C)cc3nc2C#N)CC1` [Example 137, (R)-6-chloro-3-((1-(2-cyano-7-methyl-3-(4-(N-methylacetamido)piperidin-1-yl)quinoxalin-5-yl)ethyl)amino)picolinic acid] are within 1.5-fold of each other in IC50: 1.7 nM for the first, 1.3 nM for the second.

`Cc1cc([C@@H](C)Nc2ccc(Cl)nc2C(=O)O)c2nc(N3CCC(n4cccn4)CC3)c(C#N)nc2c1` [Example 136, (R)-3-((1-(3-(4-(1H-pyrazol-1-yl)piperidin-1-yl)-2-cyano-7-methylquinoxalin-5-yl)ethyl)amino)-6-chloropicolinic acid] and `Cc1cc([C@@H](C)Nc2ccc(Cl)nc2C(=O)O)c2nc(N3CCN(c4ccc(C(F)(F)F)nc4)CC3)c(C#N)nc2c1` [Example 133, (R)-6-chloro-3-((1-(2-cyano-7-methyl-3-(4-(6-(trifluoromethyl)pyridin-3-yl)piperazin-1-yl)quinoxalin-5-yl)ethyl)amino)picolinic acid] are within 1.5-fold of each other in IC50: 0.7 nM for the first, 0.8 nM for the second.

Going from `Cc1cc([C@@H](C)Nc2ccc(Cl)nc2C(=O)O)c2nc(N3CCc4cc(C#N)ccc4C3)c(C#N)nc2c1` [Example 85, (R)-6-chloro-3-((1-(2-cyano-3-(6-cyano-3,4-dihydroisoquinolin-2(1H)-yl)-7-methylquinoxalin-5-yl)ethyl)amino)picolinic acid] to `Cc1cc([C@@H](C)Nc2ccc(Cl)nc2C(=O)O)c2nc(NCC3COC3)c(C#N)nc2c1` [Example 135, (R)-6-chloro-3-((1-(2-cyano-7-methyl-3-((oxetan-3-ylmethyl)amino)quinoxalin-5-yl)ethyl)amino)picolinic acid], the IC50 rises from 2 nM to 19.2 nM (9.6-fold).

`Cc1cc([C@@H](C)Nc2ccccc2C(=O)O)c2nc(N3CC4(CCO4)C3)c(C#N)nc2c1` [Example 134, (R)-2-((1-(2-cyano-7-methyl-3-(1-oxa-6-azaspiro[3.3]heptan-6-yl)quinoxalin-5-yl)ethyl)amino)benzoic acid] showed an IC50 of 10.9 nM.

What follows are compounds tested on T47D (PI3Kα H1047R mutant) cells (assay: Cell viability (CellTiter-Glo 2.0) in T47D cells). Details: Homo sapiens, T47D, 72 h, approximately 72 hours.
Format: cell-based
Experimental: This Example illustrates that representative compounds of the invention decrease the viability of cells.
The ability of a compound of Formula (I) to decrease the viability of cells was measured using CellTiter-Glo 2.0 (CTG) Luminescent Cell Viability Assay (#G9241) obtained from Promega (Madison, WI).
To prepare assay plates for viability assays, cells were trypsinized, resuspended in fresh media, and viable cells were counted utilizing trypan blue exclusion. T47D, SKBR3, or MKN1 cells were seeded at 1000 cells in 30 μl per well in a solid white flat bottom 384 cell culture plate (Perkin Elmer #6007680) and incubated at 37° C. overnight.
Assay day 1, cells were dosed using an Echo Liquid Handler (Beckman Coulter) with compounds at a 10 μm starting concentration and serially diluted (1:4) for a total of 10 concentrations. Cells were incubated for approximately 72 hours with the compounds (solubilized in DMSO) at 37° C. After 72 hours of treatment, cell plates were equilibrated to room temperature before adding 15 μl of CTG to each well, plates were then covered in aluminum foil to protect from light, incubated at room temperature for 30 minutes on a microtiter plate shaker, and luminescence readings were collected using a CLARIOstar microplate reader (BMG Labtech, Germany). Percent of vehicle control values were plotted as log(inhibitor) vs. response—Variable slope (four parameters) for curve fitting and IC50 values were determined using XLfit.

`CO[C@@H]1CN(c2nc3c([C@@H](C)Nc4ccc(Cl)nc4C(=O)O)cc(C)cc3nc2C#N)CC1(F)F` (single isomer, unassigned) [Example 172] and `CO[C@H]1CN(c2nc3c([C@@H](C)Nc4ccc(Cl)nc4C(=O)O)cc(C)cc3nc2C#N)CC1(F)F` (single isomer, unassigned) [Example 171] are within 1.5-fold of each other in IC50: 170 nM for the first, 178 nM for the second.

First: Cc1cc([C@@H](C)Nc2ccc(Cl)nc2C(=O)O)c2nc(N3CC(F)(F)C4(CC4)C3)c(C#N)nc2c1 [Example 116, (R)-6-chloro-3-((1-(2-cyano-3-(7,7-difluoro-5-azaspiro[2.4]heptan-5-yl)-7-methylquinoxalin-5-yl)ethyl)amino)picolinic acid]
Second: Cc1cc([C@@H](C)Nc2ccc(Cl)nc2C(=O)O)c2nc(N3CC4(CCO4)C3)c(C#N)nc2c1 [Example 130, (R)-6-chloro-3-((1-(2-cyano-7-methyl-3-(1-oxa-6-azaspiro[3.3]heptan-6-yl)quinoxalin-5-yl)ethyl)amino)picolinic acid]
The IC50 of the first is 3.1-fold higher: 202 nM for the first, 65.6 nM for the second.

Going from `Cc1cc([C@@H](C)Nc2ccc(Cl)nc2C(=O)O)c2nc(NCCC(F)(F)F)c(C#N)nc2c1` [Example 124, (R)-6-chloro-3-((1-(2-cyano-7-methyl-3-((3,3,3-trifluoropropyl)amino)quinoxalin-5-yl)ethyl)amino)picolinic acid] to `Cc1cc([C@@H](C)Nc2ccc(Cl)nc2C(=O)O)c2nc(N3CC[C@H](F)C3)c(C#N)nc2c1` [Example 176, 6-chloro-3-(((R)-1-(2-cyano-3-((S)-3-fluoropyrrolidin-1-yl)-7-methylquinoxalin-5-yl)ethyl)amino)picolinic acid], the IC50 falls from 126 nM to 34.5 nM (3.7-fold). The second is the more potent here.

Going from `Cc1cc([C@@H](C)Nc2ccc(Cl)nc2C(=O)O)c2nc(N3CCO[C@H](C)C3)c(C#N)nc2c1` [Example 168, 6-chloro-3-(((R)-1-(2-cyano-7-methyl-3-((R)-2-methylmorpholino)quinoxalin-5-yl)ethyl)amino)picolinic acid] to `Cc1cc([C@@H](C)Nc2ccc(Cl)nc2C(=O)O)c2nc(N3CC[C@H](S(C)(=O)=O)C3)c(C#N)nc2c1` [Example 175, 6-chloro-3-(((R)-1-(2-cyano-7-methyl-3-((S)-3-(methylsulfonyl)pyrrolidin-1-yl)quinoxalin-5-yl)ethyl)amino)picolinic acid], the IC50 rises from 45.8 nM to 344 nM (7.5-fold). The first is the more potent here.

First: Cc1cc([C@@H](C)Nc2ccc(Cl)nc2C(=O)O)c2nc(N3C[C@@H]4C[C@H]3CO4)c(C#N)nc2c1 [Example 173, 3-(((R)-1-(3-((1S,4S)-2-oxa-5-azabicyclo[2.2.1]heptan-5-yl)-2-cyano-7-methylquinoxalin-5-yl)ethyl)amino)-6-chloropicolinic acid]
Second: Cc1cc([C@@H](C)Nc2ccc(Cl)nc2C(=O)O)c2nc(N3CCC(F)(F)[C@H]3C)c(C#N)nc2c1 (single isomer, unassigned) [Example 170]
The IC50 of the first is 3.5-fold lower: 26.8 nM for the first, 93.3 nM for the second. The first is the more potent here.

Compared with `COC(=O)c1nc(Cl)ccc1N[C@H](C)c1cc(C)cc2nc(C#N)c(N3CC[C@](C)(F)C3)nc12` (single isomer, unassigned) [Example 181], `Cc1cc([C@@H](C)Nc2ccc(Cl)nc2C(=O)O)c2nc(N3CCC(F)(F)[C@@H]3C)c(C#N)nc2c1` (single isomer, unassigned) [Example 169] is 2.5-fold higher in IC50: 44 nM for the first, 108 nM for the second.

Compared with `CCOCC1CCN(c2nc3c([C@@H](C)Nc4ccc(Cl)nc4C(=O)O)cc(C)cc3nc2C#N)CC1` [Example 119, (R)-6-chloro-3-((1-(2-cyano-3-(4-(ethoxymethyl)piperidin-1-yl)-7-methylquinoxalin-5-yl)ethyl)amino)picolinic acid], `Cc1cc([C@@H](C)Nc2cccnc2C(=O)O)c2nc(N3CCC(F)(F)CC3)c(C#N)nc2c1` [Example 118, (R)-3-((1-(2-cyano-3-(4,4-difluoropiperidin-1-yl)-7-methylquinoxalin-5-yl)ethyl)amino)picolinic acid] is 6.4-fold higher in IC50: 59.9 nM for the first, 383 nM for the second. The first is the more potent here.

`Cc1cc([C@@H](C)Nc2cscc2C(=O)O)c2nc(N3CCC(F)(F)CC3)c(C#N)nc2c1` [Example 121, (R)-4-((1-(2-cyano-3-(4,4-difluoropiperidin-1-yl)-7-methylquinoxalin-5-yl)ethyl)amino)thiophene-3-carboxylic acid] was tested, and the IC50 was 651 nM.
